Measurements published in publication PMC11666850, “Development and evaluation of deuterated [^18F]JHU94620 isotopologues for the non-invasive assessment of the cannabinoid type 2 receptor in brain” (EJNMMI Radiopharmacy and Chemistry, 2024).
Where two headings read alike, the source gives them in different places.

Assays:
CB2R [1] = conditions: cited from earlier work
CB1R = conditions: cited from earlier work
[2] = cited from earlier work
[3] = Ex vivo radiometabolite analysis in CD-1 mice; conditions: CD-1, mouse, in vivo, 30 min
Experimental: Female adult CD-1 mice (25–42 g body weight) were used for radiometabolite analysis of [^18F]JHU94620-d4 (n = 2, 33 and 34 MBq) and [^18F]JHU94620-d8 (n = 3, 26–33 MBq) at 30 min after intravenous tail vein injection of the radiotracer to allow for the comparison of radiometabolite analysis of [^18F]JHU94620 (Moldovan et al. [2016]). The mice were immobilized by short isoflurane narcosis for the injection of the radiotracer in a restrainer and awakened mice were kept in an isolated cage until euthanisation by cervical dislocation under isoflurane narcosis. Male Wistar rats (n = 12, 613–794 g) were used for radiometabolite analysis of [^18F]JHU94620-d8 at different time points (5, 15, 30 and 60 min p.i.) after intravenous tail vein injection of the radiotracer (37–74 MBq) for the correction of the input function in pharmacokinetic analysis. Rats were kept under isoflurane narcosis (gas mixture: 2.5% isoflurane and O2) on a warmed plate until euthanization by decapitation of deep narcotized animals. Plasma samples were obtained by centrifugation with 5500 g of blood samples for 2 min at 4 °C. Resected tissues brain and spleen were kept on ice and minced for 3 × 20 s with adding 0.5 to 1 mL of 0.9% NaCl using a Precellys lysing kit and Minilys homogenizer (Bertin Technologies SAS, Montigny-le-Bretonneux, France).
The samples were further processed for subsequent radio-chromatographic analyses. Two consecutive extractions were performed in duplicates for plasma and brain determinations. Plasma, brain and spleen samples were added to the four time the volume of an ice-cold MeOH/H2O mixture (9:1, v/v). The samples were vortexed for 3 min, incubated on ice for 5 min and centrifuged at 8,600 g for 5 min. Supernatants were collected and the precipitates were re-dissolved in 100 µL of extraction solvent and the extraction procedure was repeated. The activities of supernatants and precipitates were measured in a γ-counter (1480 WIZARD, Perkin Elmer), and the extraction efficiencies were calculated as the ratio of radioactivity in the supernatant to the radioactivity in the original sample (supernatant + precipitate). The supernatants from both extractions were combined, concentrated at 70 °C under argon stream up to a remaining volume of 100 µL, and subsequently analysed by analytical radio-HPLC (method A or B).

hCB1R = target: hCB1R; design: method as in Moldovan et al. [2016]; conditions: ref Moldovan et al. [2016]; cited from earlier work
hCB2R = target: hCB2R; design: method as in Moldovan et al. [2016]; conditions: ref Moldovan et al. [2016]; cited from earlier work
[4] = pH 7.4; cited from earlier work
CB2R [5] = target: T1, CB2R (Rattus norvegicus, UniProt Q9QZN9); assay type: in vivo; conditions: Wistar rats, i.v. pre-treatment 5 min prior tracer, between 2.5 and 20 min p.i., 1-way ANOVA p < 0.05
T1 construct: from tissue; host or cells: rat spleen: cryosections in vitro, and spleen of living Wistar rats in PET
T1 sequence (Q9QZN9 1-360): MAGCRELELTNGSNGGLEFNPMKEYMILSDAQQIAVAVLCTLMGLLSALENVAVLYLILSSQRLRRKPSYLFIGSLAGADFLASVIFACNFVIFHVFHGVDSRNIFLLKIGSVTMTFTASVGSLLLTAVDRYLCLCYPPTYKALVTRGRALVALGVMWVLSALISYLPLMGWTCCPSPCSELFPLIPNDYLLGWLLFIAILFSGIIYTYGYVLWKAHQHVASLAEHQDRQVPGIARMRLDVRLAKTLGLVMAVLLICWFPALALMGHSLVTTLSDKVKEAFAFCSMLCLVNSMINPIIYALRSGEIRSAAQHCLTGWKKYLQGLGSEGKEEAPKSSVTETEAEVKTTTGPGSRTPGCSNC
Experimental: The dynamic biodistribution of the radiotracer in the lower body of rats was assessed by small animal PET (Nanoscan, Mediso, Hungary) over 60 min with a subsequently T1-weighted MR. Anaesthetized (2% isoflurane, carrier gas mixture of 40% air and 60% O2) male Wistar rats (body weight: 205–308 g, age: 8–10 weeks, no gender-specific differences were taken into account) were kept during imaging on a heated animal bed to sustain body temperature and were pretreated with vehicle (DMSO:Kolliphore EL:0.9% saline, 1:2:7), JHU94620-d8 (1.5 mg kg^−1 bodyweight) or with GW405833 (5 mg kg^−1 bodyweight) 5 min prior tracer application ([^18F]JHU94620-d8: 7.7–28.2 MBq, 0.4 to 3.2 nmol kg^−1 bodyweight), whereby all injections were administered intravenously. For the evaluation of the hCB2R-specific binding of the radiotracer in the brain, female Wistar rats (n = 6, 253–269 g, age: 8 month) were used carrying stereotactically injected constructs of AAV2/7-CaMKII0.4-intron-hCB2R(D80N) in the right striatum and AAV2/7-CaMKII0.4-intron-3flag-eGFP in the control/contralateral striatum (Vandeputte et al. [2011]). 21–26 MBq corresponding to 0.2 to 2.0 nmol kg^−1 bodyweight radiotracer were injected, whereas in displacement studies 5 mg kg^−1 bodyweight GW405833 was administered 20 min after the radiotracer (each n = 3). The PET scans were performed six months after the stereotactic injections of the AAV2/7-constructs.
The acquisitions were performed in normal mode and a coincidence mode 1–5. For subsequent dynamic reconstructions list mode data were sorted into sinograms (12 × 10 s, 6 × 30 s, 5 × 60 s and 10 × 300 s). The frames were reconstructed by Ordered Subset Expectation Maximization applied to 3D (OSEM3D) sinograms corrected for decay and attenuation (4 iterations, 6 subsets and a voxel size of 0.4 mm^3) with the Nucline software v2.01 (Mediso, Budapest, Hungary). Analyses of reconstructed studies were performed with PMOD software (v4.205, PMOD Technologies LLC, Fällanden, Switzerland) and results are expressed in standardized uptake values (SUVs) or normalized to a reference region (SUVr).

hCB2R(D80N) = hCB2R(D80N) (Homo sapiens, UniProt P34972, D80N); assay: Homologous displacement autoradiography, brain cryosections of rats with hCB2R(D80N) overexpression; assay type: binding; conditions: hCB2R(D80N) region, 10 µm rat brain cryosections, homologous displacement, n = 3; read-out: KD
hCB2R(D80N), sequence (P34972 whole entry D80N): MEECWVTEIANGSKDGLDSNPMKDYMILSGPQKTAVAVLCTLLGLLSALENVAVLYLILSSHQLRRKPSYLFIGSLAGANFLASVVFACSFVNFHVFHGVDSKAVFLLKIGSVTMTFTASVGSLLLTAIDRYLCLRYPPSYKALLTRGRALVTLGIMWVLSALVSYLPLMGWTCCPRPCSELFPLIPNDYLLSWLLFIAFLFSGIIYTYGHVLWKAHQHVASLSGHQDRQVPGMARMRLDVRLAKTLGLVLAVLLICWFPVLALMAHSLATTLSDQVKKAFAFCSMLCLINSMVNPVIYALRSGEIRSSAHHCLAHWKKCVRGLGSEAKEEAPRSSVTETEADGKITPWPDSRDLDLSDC

human CB2R (hCB2R) = target: T2, human CB2R (hCB2R) (Homo sapiens, UniProt P34972); assay: Homologous competition binding, CHO(hCB2R) cell membranes
T2 construct: expressed in transfected cells; host or cells: CHO(hCB2R) cells, obtained from Paul L. Prather, University of Arkansas for Medical Sciences
T2 sequence (P34972 whole entry): as the sequence (P34972 whole entry D80N) above, with N80D counted along it
Experimental: For binding studies crude homogenates of CHO(hCB2R) cells (obtained from Paul L. Prather, Department of Pharmacology and Toxicology, College of Medicine, University of Arkansas for Medical Sciences, USA) were incubated with the reference compound (self-blocking) or the CB2R-specific partial agonist GW405833 (Tocris Bioscience, Bristol, UK) with indicated concentrations at room temperature for 90 min. The total volume of 1 mL of each sample consisted of 600 µL incubation buffer (50 mM Tris HCl pH7.4, 5 mM MgCl2, 1 mM EDTA and 1% Bovine Serum Albumin), 200 µL cell membrane homogenates, 100 µL competitor or binding buffer (total binding) and 100 µl of binding buffer with [^18F]JHU94620-d8 (about 100 kBq per vial, corresponding to 0.8 to 1.6 nM). Incubation was terminated by rapid filtration through a GF-B glass fibre filter, pre-treated with 0.5% PVP with 0.1% Tween 20 solution, using a 48-well cell harvester, washed six times with buffer and filter bound activity was subsequently measured in a γ-counter (1480 WIZARD, Perkin Elmer, Turku, Finland).
(§1) The KD values were calculated with GraphPad Prism according to the modified Cheng-Prusoff method for homologous competitive binding studies, where the KD = Ki = IC50—[radioligand] and the Bmax = specific binding / [radioligand] / ((KD + [radioligand])) (Motulsky and Neubig [2000]), assuming a total protein content of 8.2% (1.3 10^–4 µg protein per voxel) in the spleen (Zaia et al. [2000]) or by determining the protein concentration of the cell membrane lysates using a BCA assay (Thermo Scientific, Braunschweig, Germany). The fractional occupancy defined as occupied binding sites per total binding sites is used to describe the binding fraction specifically bound to CB2R compared to unspecific binding, where [L] is the concentration of the ligand at the start of incubation.

CB2R [6] = target: T1, CB2R; assay: Quantitative autoradiography, rat spleen cryosections; assay type: binding; conditions: 100 nM CB2R PAM, rat spleen
Experimental: For quantitative autoradiography in different species, 10 µm cryosections from mouse, rat and piglet spleen were thawed, dried, and pre-incubated with incubation buffer for 10 min, dried under an airstream. Subsequently, the incubation buffer containing [^18F]JHU94620-d8 (59–137 GBq µmol^−1, 1.7–3.6 nM) was added alone or together with indicated concentrations of the reference compound. Additionally, to assess the non-specific binding of [^18F]JHU94620-d8 to cryosections GW405833 was added instead of the reference compound. After 90 min, cryosections were washed two times for 2 min with ice-cold 50 mM Tris HCl, pH7.4 and 10 s in ddH2O and subsequently dried under an airstream. For the calculation of the radioactivity concentration, 5 µl of five serial 1:2 dilutions of the incubation buffer with [^18F]JHU94620-d8 were air-dried on a microscopic slide. For binding studies in rat spleen cryosections by autoradiography with HLM-derived radiometabolites of [^18F]JHU94620-d8 obtained from the radiometabolite assay, the samples were added to the incubation buffer to a final activity concentration of 0.2 MBq mL^−1 and protocol was followed as described above. Subsequently, the slides were exposed to a phosphor imager plate. After scanning at high sensitivity and a 12.5 µm resolution with a CR35 Bio image plate scanner (Raytest Isotopenmessgeräte GmbH, Straubenhardt, Germany). The analyses of the autoradiographic images were performed with the AIDA 5.1 software (Elysia-Raytest, Angleur, Belgium) resulting in a resolution of 12.617 pixel × 12.616 pixel per µm^2 (1 voxel = 1592 µm^3 ≙ 1.59 10^–3 µg wet tissue) and inhibition curves were created with GraphPad Prism 9.5.1 (GraphPad Inc., La Jolla, CA).
as §1

CB2R [7] = target: T1, CB2R; design: method as in Govaerts et al. [2004]; conditions: rat spleen; ref Govaerts et al. [2004]; cited from earlier work
CB2R [8] = target: T3, CB2R (Mus musculus, UniProt P47936); design: method as in Govaerts et al. [2004]; conditions: mouse spleen; ref Govaerts et al. [2004]; cited from earlier work
T3 construct: from tissue; host or cells: mouse spleen cryosections
T3 sequence (P47936 whole entry): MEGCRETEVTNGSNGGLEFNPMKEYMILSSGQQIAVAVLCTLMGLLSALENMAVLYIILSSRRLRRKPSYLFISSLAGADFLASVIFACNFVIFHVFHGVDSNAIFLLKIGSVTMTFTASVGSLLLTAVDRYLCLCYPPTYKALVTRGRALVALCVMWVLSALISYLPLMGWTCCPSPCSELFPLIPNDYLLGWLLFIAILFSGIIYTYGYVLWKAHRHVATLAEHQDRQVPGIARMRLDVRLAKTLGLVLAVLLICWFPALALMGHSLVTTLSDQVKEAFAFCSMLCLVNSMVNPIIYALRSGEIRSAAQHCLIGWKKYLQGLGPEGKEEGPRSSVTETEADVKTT

[9] = ref Caillé et al. [2017], Auvity et al. [2024]
[10] = ref McPartland et al. [2007], Kosar et al. [2024]

Compound: Cc1s/c(=N\C(=O)C2C(C)(C)C2(C)C)n(CCOCC[18F])c1C [[^18F]FC0324, (Z)-N-(3-(2-(2-[^18F]Fluoroethoxy)ethyl)-4,5-dimethylthiazol-2(3H)-ylidene)-2,2,3,3-tetramethylcyclopropane-1-carboxamide]
- Ki (CB2R [1]; [9]): 0.1 nM
- Ki (CB1R; [9]): 30 nM

Compound: Cc1s/c(=N\C(=O)C2C(C)(C)C2(C)C)n(CCCC[18F])c1C [[^18F]JHU94620]
- parent fraction in brain ([2]; CD-1 mouse brain, 30 min p.i., ref Moldovan et al. [2016]): 0.36
- parent fraction in plasma ([2]; mouse, in vivo): 0.07
- percentage printed at the radiotracer peak of the representative radio-HPLC chromatogram (Mice) [3]: 37%
- Ki (hCB1R): 380 nM
- Ki (hCB2R): 0.4 nM
- LogD7.4 [4]: 3.2

Compound: [2H]C([2H])(F)C([2H])([2H])C([2H])([2H])C([2H])([2H])n1c(C)c(C)s/c1=N\C(=O)C1C(C)(C)C1(C)C [JHU94620-d8, (Z)-N-(3-(4-Fluorobutyl-1,1,2,2,3,3,4,4-d8)-4,5-dimethylthiazol-2(3H)-ylidene)-2,2,3,3-tetramethylcyclopropane-1-carboxamide]
- blocking of [^18F]JHU94620-d8 uptake into the spleen (CB2R [5]): significantly blocked
- Kd (hCB2R(D80N)): 41.3 nM

Compound: Cc1c(Br)cn(Cc2ccc(F)cc2)c(=O)c1NC(=O)C1CCCCCC1 [CB2R PAM, reference compound]
- effect of co-incubation on the binding of [^18F]JHU94620-d8 (human CB2R (hCB2R); 100 nM CB2R PAM, CHO(hCB2R) cell membranes): did not increase the binding
- competition with [^18F]JHU94620-d8 binding (human CB2R (hCB2R); CB2R PAM binding assay, Figure S9 as cited): weak competitive binding
- effect of co-incubation on the binding of [^18F]JHU94620-d8 (CB2R [6]): did not increase the binding

Compound: CCCCC/C=C\C/C=C\C/C=C\C/C=C\CCCC(=O)OC(CO)CO [2-AG, 2-arachydonilglycerol]
- Ki (CB2R [1]; [10]): 1190 nM

Compound: CCCCC/C=C\C/C=C\C/C=C\C/C=C\CCCC(=O)NCCO [AEA, anandamide]
- Ki (CB2R [1]; [10]): 440 nM
- Ki (CB1R; [10]): 240 nM

Compound: COc1ccc2c(c1)c(CCN1CCOCC1)c(C)n2C(=O)c1cccc(Cl)c1Cl [GW405833, reference compound]
- blocking of [^18F]JHU94620-d8 uptake into the spleen (CB2R [5]): significantly blocked

Compound: CCCCCCC(C)(C)c1ccc([C@@H]2C[C@H](O)CC[C@H]2CCCO)c(O)c1 [[^3H]CP55940]
- Bmax (CB2R [7]): 0.71 ± 0.02 pmol mg^−1 protein
- Bmax (CB2R [8]): 0.31 ± 0.03 pmol mg^−1 protein

Compound: Δ^9-trans-tetrahydrocannabinol [THC]
- Ki (CB2R [1]; [10]): 36 nM
- Ki (CB1R; [10]): 25 nM
